Results on 4 compounds are retold here after ChEMBL document CHEMBL5705888, “Substrate specificity and inhibitors of LRRK2, a protein kinase mutated in Parkinson's disease” (Biochem J, 2009).

Each structure is given as a SMILES string.

Test [1] deals with MAP kinase-interacting serine/threonine-protein kinase 2 (Homo sapiens) (UniProt Q9HBH9). Nature of the test: Inhibition of MNK2 (unknown origin) at 10 uM incubated for 30 mins in presence of [gamma-33P]ATP by multidrop micro reagent based assay relative to control; values are per cent of control.
Test [2] addresses Myosin light chain kinase, smooth muscle (Homo sapiens) (UniProt Q15746). The test is described as follows: Inhibition of SmMLCK (unknown origin) at 10 uM incubated for 30 mins in presence of [gamma-33P]ATP by multidrop micro reagent based assay relative to control; values are per cent of control.
Test [3] addresses T1, Mitogen-activated protein kinase kinase kinase kinase 2 (Homo sapiens) (UniProt Q12851).
T1 sequence (whole entry): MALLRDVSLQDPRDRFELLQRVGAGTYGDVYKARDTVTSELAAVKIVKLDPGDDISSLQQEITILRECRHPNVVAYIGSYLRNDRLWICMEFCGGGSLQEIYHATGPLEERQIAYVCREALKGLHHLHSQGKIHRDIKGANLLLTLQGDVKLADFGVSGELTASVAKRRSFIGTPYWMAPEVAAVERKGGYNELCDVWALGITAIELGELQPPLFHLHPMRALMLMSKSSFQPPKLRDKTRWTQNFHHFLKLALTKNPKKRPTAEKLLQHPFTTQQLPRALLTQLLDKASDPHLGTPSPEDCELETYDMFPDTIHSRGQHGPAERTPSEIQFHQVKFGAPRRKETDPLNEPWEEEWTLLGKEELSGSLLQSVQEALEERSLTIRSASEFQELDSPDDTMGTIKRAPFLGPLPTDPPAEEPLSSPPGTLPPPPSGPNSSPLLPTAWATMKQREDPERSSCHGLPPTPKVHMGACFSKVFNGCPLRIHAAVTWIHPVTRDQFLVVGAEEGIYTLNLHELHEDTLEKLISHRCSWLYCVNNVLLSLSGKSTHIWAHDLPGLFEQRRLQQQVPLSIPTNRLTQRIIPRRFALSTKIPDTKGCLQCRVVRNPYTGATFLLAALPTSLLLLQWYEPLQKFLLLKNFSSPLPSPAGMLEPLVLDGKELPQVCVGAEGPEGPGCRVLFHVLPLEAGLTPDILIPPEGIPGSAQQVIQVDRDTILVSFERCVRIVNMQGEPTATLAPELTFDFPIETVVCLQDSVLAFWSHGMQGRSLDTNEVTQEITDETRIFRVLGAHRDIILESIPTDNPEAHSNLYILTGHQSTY
The test is described as follows: Inhibition of GCK (unknown origin) at 10 uM incubated for 30 mins in presence of [gamma-33P]ATP by multidrop micro reagent based assay relative to control; values are per cent of control.

Another test is filed under the species Homo sapiens. The test is described as follows: Inhibition of PHK (unknown origin) at 10 uM incubated for 30 mins in presence of [gamma-33P]ATP by multidrop micro reagent based assay relative to control; values are per cent of control.
The target in test [4] is T2, Ephrin type-B receptor 3 (Homo sapiens) (UniProt P54753).
T2 sequence (whole entry): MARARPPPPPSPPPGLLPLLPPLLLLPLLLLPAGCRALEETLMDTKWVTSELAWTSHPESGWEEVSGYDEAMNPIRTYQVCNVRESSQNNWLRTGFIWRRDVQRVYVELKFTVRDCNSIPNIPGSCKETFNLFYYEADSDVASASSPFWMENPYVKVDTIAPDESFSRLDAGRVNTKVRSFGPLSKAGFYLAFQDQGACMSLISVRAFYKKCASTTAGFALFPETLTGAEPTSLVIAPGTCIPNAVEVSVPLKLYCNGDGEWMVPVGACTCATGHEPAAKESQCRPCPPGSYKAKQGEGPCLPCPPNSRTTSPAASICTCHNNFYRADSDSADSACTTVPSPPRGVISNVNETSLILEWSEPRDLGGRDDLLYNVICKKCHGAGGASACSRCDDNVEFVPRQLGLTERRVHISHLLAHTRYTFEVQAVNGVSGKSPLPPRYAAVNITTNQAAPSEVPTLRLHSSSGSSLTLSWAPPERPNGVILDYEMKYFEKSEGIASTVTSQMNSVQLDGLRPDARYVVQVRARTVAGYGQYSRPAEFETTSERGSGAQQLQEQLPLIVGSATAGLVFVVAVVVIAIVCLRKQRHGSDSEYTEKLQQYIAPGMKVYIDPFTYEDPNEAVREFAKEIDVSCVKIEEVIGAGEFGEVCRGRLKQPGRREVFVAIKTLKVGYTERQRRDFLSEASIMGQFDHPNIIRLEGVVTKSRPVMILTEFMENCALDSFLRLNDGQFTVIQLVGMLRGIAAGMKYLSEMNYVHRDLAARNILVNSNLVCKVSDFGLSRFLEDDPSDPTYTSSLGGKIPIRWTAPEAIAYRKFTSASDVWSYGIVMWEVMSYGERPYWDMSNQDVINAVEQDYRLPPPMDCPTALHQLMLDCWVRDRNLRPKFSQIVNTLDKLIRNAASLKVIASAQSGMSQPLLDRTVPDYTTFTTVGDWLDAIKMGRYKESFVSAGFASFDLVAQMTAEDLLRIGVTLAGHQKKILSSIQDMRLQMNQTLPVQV
Nature of the test: Inhibition of EPH-B3 (unknown origin) at 1 uM incubated for 30 mins in presence of [gamma-33P]ATP by multidrop micro reagent based assay relative to control.

In test [5] the target is Serine/threonine-protein kinase PAK 4 (Homo sapiens) (UniProt O96013). The test is described as follows: Inhibition of PAK4 (unknown origin) at 1 uM incubated for 30 mins in presence of [gamma-33P]ATP by multidrop micro reagent based assay relative to control.
Serine/threonine-protein kinase PAK 4 (Homo sapiens), sequence (O96013 whole entry, looked up): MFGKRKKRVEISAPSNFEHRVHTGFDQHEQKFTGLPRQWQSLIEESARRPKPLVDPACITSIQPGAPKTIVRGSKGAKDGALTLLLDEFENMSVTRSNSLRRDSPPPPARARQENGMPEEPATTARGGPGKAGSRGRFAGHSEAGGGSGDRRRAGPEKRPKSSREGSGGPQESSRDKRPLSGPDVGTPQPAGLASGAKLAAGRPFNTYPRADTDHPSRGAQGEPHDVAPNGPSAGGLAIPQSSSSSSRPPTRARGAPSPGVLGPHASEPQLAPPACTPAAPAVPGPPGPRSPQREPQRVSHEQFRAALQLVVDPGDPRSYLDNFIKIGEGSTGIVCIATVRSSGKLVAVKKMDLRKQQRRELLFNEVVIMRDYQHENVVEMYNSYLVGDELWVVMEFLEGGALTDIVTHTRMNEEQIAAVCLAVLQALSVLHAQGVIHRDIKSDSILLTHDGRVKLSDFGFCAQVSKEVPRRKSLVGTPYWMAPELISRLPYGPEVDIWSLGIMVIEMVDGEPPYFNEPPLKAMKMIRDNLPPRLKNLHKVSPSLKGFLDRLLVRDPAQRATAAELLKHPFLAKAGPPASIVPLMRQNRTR

MAP kinase-interacting serine/threonine-protein kinase 2 (Homo sapiens), sequence (Q9HBH9 whole entry, looked up): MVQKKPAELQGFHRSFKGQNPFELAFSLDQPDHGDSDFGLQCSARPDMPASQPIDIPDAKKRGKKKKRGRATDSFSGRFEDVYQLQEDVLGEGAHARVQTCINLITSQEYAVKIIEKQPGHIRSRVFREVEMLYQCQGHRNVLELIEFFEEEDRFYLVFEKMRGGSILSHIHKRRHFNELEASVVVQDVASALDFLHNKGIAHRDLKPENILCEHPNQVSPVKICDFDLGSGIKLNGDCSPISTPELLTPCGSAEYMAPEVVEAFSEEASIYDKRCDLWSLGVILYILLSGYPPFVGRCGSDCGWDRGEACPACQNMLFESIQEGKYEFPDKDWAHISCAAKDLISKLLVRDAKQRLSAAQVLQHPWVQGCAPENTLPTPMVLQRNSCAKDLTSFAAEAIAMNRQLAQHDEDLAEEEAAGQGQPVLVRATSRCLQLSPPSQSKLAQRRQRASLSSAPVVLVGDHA
Myosin light chain kinase, smooth muscle (Homo sapiens), sequence (Q15746 whole entry): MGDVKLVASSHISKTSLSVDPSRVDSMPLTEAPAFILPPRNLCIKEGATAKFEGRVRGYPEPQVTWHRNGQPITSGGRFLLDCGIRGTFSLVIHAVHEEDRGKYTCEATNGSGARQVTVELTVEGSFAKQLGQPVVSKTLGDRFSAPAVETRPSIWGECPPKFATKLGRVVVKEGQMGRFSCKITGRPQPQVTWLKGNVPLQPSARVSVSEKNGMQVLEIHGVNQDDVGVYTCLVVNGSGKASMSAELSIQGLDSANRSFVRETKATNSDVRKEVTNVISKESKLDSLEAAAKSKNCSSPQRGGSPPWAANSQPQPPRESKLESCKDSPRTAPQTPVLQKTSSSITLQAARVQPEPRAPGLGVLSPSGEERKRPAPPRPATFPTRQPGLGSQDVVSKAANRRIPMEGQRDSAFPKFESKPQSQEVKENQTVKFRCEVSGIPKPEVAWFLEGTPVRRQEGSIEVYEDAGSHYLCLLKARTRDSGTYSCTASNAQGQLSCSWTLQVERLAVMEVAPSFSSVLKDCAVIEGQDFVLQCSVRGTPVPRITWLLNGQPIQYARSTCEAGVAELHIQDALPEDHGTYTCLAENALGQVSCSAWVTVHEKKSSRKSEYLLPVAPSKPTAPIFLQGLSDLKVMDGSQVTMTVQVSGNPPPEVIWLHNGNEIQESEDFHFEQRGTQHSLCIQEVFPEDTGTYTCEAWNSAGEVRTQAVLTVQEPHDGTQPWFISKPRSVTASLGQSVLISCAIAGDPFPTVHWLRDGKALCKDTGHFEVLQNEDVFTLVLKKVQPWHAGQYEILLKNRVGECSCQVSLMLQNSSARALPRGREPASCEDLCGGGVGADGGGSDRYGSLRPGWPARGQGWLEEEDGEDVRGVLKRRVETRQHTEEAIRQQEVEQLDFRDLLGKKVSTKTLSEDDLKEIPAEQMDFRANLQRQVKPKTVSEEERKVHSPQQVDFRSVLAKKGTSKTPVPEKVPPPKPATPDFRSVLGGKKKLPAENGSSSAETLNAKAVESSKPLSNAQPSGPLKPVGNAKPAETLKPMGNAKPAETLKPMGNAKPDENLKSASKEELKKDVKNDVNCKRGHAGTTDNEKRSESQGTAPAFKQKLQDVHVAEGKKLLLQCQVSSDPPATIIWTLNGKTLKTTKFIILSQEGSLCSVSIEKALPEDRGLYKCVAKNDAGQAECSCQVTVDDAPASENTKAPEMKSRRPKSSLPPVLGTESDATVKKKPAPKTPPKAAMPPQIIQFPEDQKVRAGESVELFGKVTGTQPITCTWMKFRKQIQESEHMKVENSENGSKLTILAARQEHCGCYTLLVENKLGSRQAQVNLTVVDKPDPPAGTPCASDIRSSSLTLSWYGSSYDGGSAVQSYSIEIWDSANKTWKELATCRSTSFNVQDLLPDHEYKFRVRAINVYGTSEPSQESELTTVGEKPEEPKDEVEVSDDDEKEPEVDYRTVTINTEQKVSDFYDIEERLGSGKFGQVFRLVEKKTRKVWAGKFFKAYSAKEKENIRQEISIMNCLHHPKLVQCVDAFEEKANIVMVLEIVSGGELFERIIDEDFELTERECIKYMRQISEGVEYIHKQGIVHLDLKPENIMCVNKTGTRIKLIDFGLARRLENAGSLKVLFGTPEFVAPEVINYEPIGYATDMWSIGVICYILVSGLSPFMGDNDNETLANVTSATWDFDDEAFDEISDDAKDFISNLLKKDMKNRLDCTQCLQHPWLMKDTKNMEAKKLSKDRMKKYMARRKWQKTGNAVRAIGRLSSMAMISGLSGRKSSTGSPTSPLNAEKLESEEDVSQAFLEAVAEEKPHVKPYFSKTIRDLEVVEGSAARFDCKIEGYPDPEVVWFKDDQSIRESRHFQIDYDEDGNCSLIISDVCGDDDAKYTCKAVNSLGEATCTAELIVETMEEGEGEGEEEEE

Take `C[C@@H](N)[C@H]1CC[C@H](C(=O)Nc2ccncc2)CC1`: the residual activity in test [1] amounted to 44%; in test [2], 70%; in test [3], 89%; in the test listed under Homo sapiens, 79%.
As a reminder, the inhibition is the drop in the measured response relative to a control, in per cent. On to `CC1=C(C(=O)Nc2cc3cn[nH]c3cc2F)C(c2ccc(C(F)(F)F)cc2)CC(=O)N1` (configuration not stated), for which, in test [4], the inhibition is 87%. Further, the residual activity in test [5] was determined as 95%.
Take `O=S(=O)(c1cccc2cnccc12)N1CCCNCC1` [FASUDIL]: the residual activity in test [1] stood at 27%; in test [2], 66%; in test [3], 55%; in the test filed under Homo sapiens it was 46%.
`Cc1cncc2cccc(S(=O)(=O)N3CCCNC[C@@H]3C)c12`: in test [4], the inhibition came out at 69%. The residual activity in test [5] turned out to be 99%.
